The text below walks through data of US20050267128A1, “Compounds, compositions and methods of modulating the mitochondrial apoptosis-induced channel (MAC)” (priority 2004, published 2005).

Entries after “also recorded” stand apart in the source; their conditions may differ.

Test [1] deals with mitochondrial apoptosis-induced channel (MAC). Nature of the test: Patch clamp of MAC in proteoliposomes containing mitochondrial outer membranes of apoptotic FL5.12 cells. The test is classed as biochemical, mouse. The conditions noted are these: for voltage dependence of MAC blockade: current voltage curves between +40 mV and −40 mV; for Hill coefficient of MAC blockade / IC50 for MAC, stated in words / IC50: patch clamp, proteoliposomes; for IC50: 150 mM KCl 5 mM HEPES pH 7.4, read-out: IC50 for blockade of MAC (inhibition of conductance); for reversibility of MAC blockade on removal by perfusion of the bath: wash out with 150 mM KCl 5 mM HEPES. A general note: In patch-clamp work, channel activity is measured electrically.
Method: Hematopoietic FL5.12 cells are a mouse leukemia cell line that enters apoptosis after withdrawal of the growth factor interleukin-3 (IL-3) (Gross, A., Jockel, J., Wei, M. C. and Korsmeyer, S. J. (1998). Parental FL5.12 cells were cultured as previously described (Gross, A., Jockel, J., Wei, M. C. and Korsmeyer, S. J. (1998) EMBO J. 17, 3878-85) in Iscove's Modified Eagle Media (IMEM), 10% Fetal Bovine Serum, 10% WEHI-3B supplement (filtered supernatant of WEHI-3B cells secreting IL-3). Cultures were kept below 1.5 million cells/ml. Cells were washed three times in media without IL-3 (WEHI supplement) to induce apoptosis twelve hours prior to the isolation of mitochondria (Zamzami, N., Susin, S. A., Marchetti, P., Hirsch, T., Gomez-Monterrey, I., Castedo, M. and Kroemer, G. (1996).
Mitochondria were isolated from 2-15 g of FL5.12 cells as previously described for outer membrane preparations (Guo, L., Pietkiewicz, D., Pavlov, E. V., Kasianowicz, J. J., Korsmeyer, S. J., Antonsson, B. and Kinnally, K. W. (2004) American Journal of Physiology, Cell Biology. 286, C1109-17; Pavlov, E. V., Priault, M., Pietkiewicz, D., Cheng, E.H.-Y., Antonsson, B., Manon, S., Korsmeyer, S. J., Mannella, C. A. and Kinnally, K. W. (2001) J. Cell Biology 155, 725-732). Outer membranes were stripped from the inner membranes by French pressing isolated mitochondria using modifications of the method of Decker and Greenawalt (Decker, G. L. and Greenawalt, J. W. (1977) J. Ultrastr. Res. 59, 44-56) as described in (Pavlov, E. V., Priault, M., Pietkiewicz, D., Cheng, E.H.-Y., Antonsson, B., Manon, S., Korsmeyer, S. J., Mannella, C. A. and Kinnally, K. W. (2001) J. Cell Biology 155, 725-732). French pressing was done at 2000 PSI in 460 mM Mannitol 140 mM Sucrose 2 mM EDTA 10 mM HEPES pH 7.4. The pressed suspension was diluted 1:1 with 230 mM Mannitol 70 mM sucrose 1 mM EDTA 5 mM HEPES pH 7.4 and centrifuged at 10,000 rpm (12,000 g) for 10 minutes. Outer membranes were separated from inner membranes as described by Mannella (Mannella, C. A. (1982) J. Cell Biol. 94, 680-687).

In test [2] the test system is permeability transition pore (PTP). The settings on record: mitochondria; cited from earlier work.
Test [3] concerns neurons. The conditions noted are these: cited from earlier work.
The test system of test [4] is MAC from apoptotic HeLa cells. Nature of the test: Blockade of MAC in partially purified fractions from apoptotic HeLa cells treated with staurosporine. The test is classed as biochemical. The conditions noted are these: unpublished results.

As for `CN1CCN(CCCN2c3ccccc3Sc3ccc(C(F)(F)F)cc32)CC1` [trifluoperazine], in test [1], the “voltage dependence of MAC blockade” value was “not voltage dependent”; the “Hill coefficient of MAC blockade” value amounted to 1.4±0.2; the “IC50 for MAC, stated in words” value was “high nanomolar range”; the IC50 amounted to 0.9 µM. Further, in test [1], the “reversibility of MAC blockade on removal by perfusion of the bath” value (from here on “reversibility of MAC blockade on removal”) was “not reversible”. Besides, in test [2], the “concentration that blocks the PTP” value is 10 to 20 µM. Also, in test [3], the “concentration that blocks mitochondrial depolarization induced by glutamate” value is 10 to 20 µM.
On to `CCCCOc1cc(C(=O)NCCN(CC)CC)c2ccccc2n1` [dibucaine], for which the “current flow through MAC upon perfusion of the bath” value in test [1] (50 μM, +20 mV) is “rapidly reduced”. Further, in test [1], the “voltage dependence of MAC blockade” value is recorded as “not voltage dependent”, the “Hill coefficient of MAC blockade” value is 1.3±0.1, the IC50 was determined as 39 µM and the “reversibility of MAC blockade on removal” value is “reversible”. Further, the “blockade of MAC compared with FL5.12 preparation” value in test [4] is on record as “similar”. The “concentration that blocks the PTP” value in test [2] was 50 to 100 µM. Also, the “concentration that blocks mitochondrial depolarization induced by glutamate” value in test [3] was 50 to 100 µM.
Take `CCN(CC)CC(=O)Nc1c(C)cccc1C` [lidocaine]: the “effect on MAC activity” value in test [1] (300 μM) is recorded as “little effect”; in test [1] (no concentration stated (FIG. 3B)), “limited effects; also recorded: no effect”. Further, in test [1], the “IC50 for MAC, stated in words” value was “mM to M”.
For `CC(C)NCC(O)COc1cccc2ccccc12` (stereo not drawn) [propranolol], in test [1], the “voltage dependence of MAC blockade” value is reported as “not voltage dependent”, the “Hill coefficient of MAC blockade” value is 2.1±0.2 and the “reversibility of MAC blockade on removal” value is “not reversible”.

As usually defined, the IC50 is the concentration that gives 50% inhibition.
